From US20250270617A1, “Compound - diagnostic marker for kidney cancer, method for detecting enzymatic activity, method for diagnosis of kidney cancer, kit comprising the compound, uses of the compound and method for the treatment of kidney cancer” (URTESTE S.A., priority 2022, published 2025)
Several values for one entry are separate records, joined by “and”; a condition that tells them apart may be missing. Equal entries are not always repeated. Numbered stars: 1 amine (or outer) side, 2 acyl side, 3 side chain; on linkers, the order of the positions; unused ones are H or OH. Square brackets hold non-standard residues; d marks the D form. Ends that are not written are not given here. Benzoyl(5-NH,2-NO2) = O=C(c1cc(N[*:1])ccc1[N+](=O)[O-])[*:2]; 2Abz = Nc1ccccc1C(=O)O

Columns and labels:
Assay type in all cases: biochemical, human
[1] = test system: proteolytic enzymes specific/characteristic of kidney cancer in urine; assay: Absorbance measurement of substrate hydrolysis in individual urine samples (kidney cancer and healthy subjects); details: for Results of absorbance analysis (rate of hydrolysis of the substrate): 405 nm, 37° C., 60 minutes, pH 8.0, triplicate
Procedure: (§1) The activity of the novel compounds according to the invention was studied in a group of 20 subjects diagnosed with kidney cancer using the representative compound according to the invention. […] The remaining compounds according to the invention are characterized by the analogous mechanism of action. For this purpose, the representative compound according to the invention, ABZ^1-Leu^2-Pro^3-Gly^4-Thr^5-ANB^6—NH2, was dissolved in dimethyl sulfoxide (at a concentration of 0.5 mg/mL) and then 50 μL of the solution was mixed with 120 μL of a buffer (200 mM Tris-HCl, pH 8.0) and 80 μL of urine from a subject suffering from kidney cancer. The measurement was performed on a 96-well plate designed for measuring absorbance and each sample was analysed in triplicate at the temperature of 37° C. The duration of the measurement was 60 minutes. During the measurement, the wavelength characteristic for the chromophore (ANB-NH2) being released was monitored at the wavelength 405 nm (range 380-430 nm).
The observed magnitude of increase in absorbance in time is different for each of the examined samples.
Such a result may be due to the difference in the activity as well as the amount of enzymes responsible for the enzymatic cleavage (proteolysis). […] The result indicates the absence of proteolytic enzymes specific/characteristic of kidney cancer.

[2] = test system: proteolytic enzymes in urine; assay: Dependence of substrate hydrolysis on reaction pH; details: FIG. 4
Procedure: Furthermore, measurements concerning the dependence of the proteolytic activity of the representative compound according to the invention on the reaction pH were performed.

[3] = test system: proteolytic enzymes in urine from a person diagnosed with kidney cancer; assay: RP HPLC analysis of substrate cleavage in urine from a person with kidney cancer; details: randomly selected urine from a person diagnosed with kidney cancer; FIG. 1
[4] = test system: proteolytic enzymes in urine from patients with different cancers; assay: Selectivity of substrate cleavage in urine samples by cancer type; details: testicular, prostate, pancreatic, biliary duct, lung, ovary, rectum cancer; mixture of 20 samples each; FIG. 3
Source text: Arabic numerals indicate the numbers of given cancer types. The samples tested for each type of cancer were derived from 20 different patients for each of the tested cancers. The results are mean values for given cancer types.
as §1
Furthermore, the dependence of the cleavage selectivity of the substrate, i.e. the compound according to the invention, on the cancer type being examined, was studied. […]

[5] = test system: proteolytic enzymes specific/characteristic of kidney cancer in urine; assay: Absorbance measurement of substrate hydrolysis in individual urine samples (kidney cancer and healthy subjects)

Substance: ABZ-Leu-Pro-Gly-Thr-ANB-NH2 ([2Abz]LPGT-{Benzoyl(5-NH,2-NO2)-NH2}) [chromogenic/fluorogenic peptide; ABZ is 2-aminobenzoic acid, ANB-NH2 is amide of 5-amino-2-nitrobenzoic acid]
- Cleavage of the substrate in urine samples from persons suffering from kidney cancer ([1]; all samples N1-N20): underwent cleavage
- Efficiency of substrate cleavage in samples N3 and N6 ([1]; compared with samples N5 or N20, FIG. 2, Table 1): less efficiently
- Results of absorbance analysis (rate of hydrolysis of the substrate) ([1]; urine sample 21, healthy subject): 0.000000
- Results of absorbance analysis (rate of hydrolysis of the substrate) ([1]; urine sample 22, healthy subject): 0.000000
- Results of absorbance analysis (rate of hydrolysis of the substrate) ([1]; urine sample 23, healthy subject): 0.000000
- Results of absorbance analysis (rate of hydrolysis of the substrate) ([1]; urine sample 24, healthy subject): 0.000000
- Results of absorbance analysis (rate of hydrolysis of the substrate) ([1]; urine sample 25, healthy subject): 0.000000
- Results of absorbance analysis (rate of hydrolysis of the substrate) ([1]; urine sample 26, healthy subject): 0.000000
- Results of absorbance analysis (rate of hydrolysis of the substrate) ([1]; urine sample 27, healthy subject): 0.000000
- Results of absorbance analysis (rate of hydrolysis of the substrate) ([1]; urine sample 28, healthy subject): 0.000000
- Results of absorbance analysis (rate of hydrolysis of the substrate) ([1]; urine sample 29, healthy subject): 0.000000
- Results of absorbance analysis (rate of hydrolysis of the substrate) ([1]; urine sample 30, healthy subject): 0.000000
- Results of absorbance analysis (rate of hydrolysis of the substrate) ([1]; urine sample 31, healthy subject): 0.000000
- Results of absorbance analysis (rate of hydrolysis of the substrate) ([1]; urine sample 32, healthy subject): 0.000000
- Results of absorbance analysis (rate of hydrolysis of the substrate) ([1]; urine sample 33, healthy subject): 0.000000
- Results of absorbance analysis (rate of hydrolysis of the substrate) ([1]; urine sample 34, healthy subject): 0.000000
- Results of absorbance analysis (rate of hydrolysis of the substrate) ([1]; urine sample 36, healthy subject): 0.000000
- Results of absorbance analysis (rate of hydrolysis of the substrate) ([1]; urine sample 37, healthy subject): 0.000000
- Results of absorbance analysis (rate of hydrolysis of the substrate) ([1]; urine sample 38, healthy subject): 0.000000
- Results of absorbance analysis (rate of hydrolysis of the substrate) ([1]; urine sample 39, healthy subject): 0.000000
- Results of absorbance analysis (rate of hydrolysis of the substrate) ([1]; urine sample 40, healthy subject): 0.000000
- Results of absorbance analysis (rate of hydrolysis of the substrate) ([1]; urine sample N1, subject with kidney cancer): 0.027 and 0.019 and 0.023
- Results of absorbance analysis (rate of hydrolysis of the substrate) ([1]; urine sample N2, subject with kidney cancer): 0.021 and 0.014 and 0.019
- Results of absorbance analysis (rate of hydrolysis of the substrate) ([1]; urine sample N4, subject with kidney cancer): 0.032 and 0.029 and 0.03
- Results of absorbance analysis (rate of hydrolysis of the substrate) ([1]; urine sample N5, subject with kidney cancer): 0.034 and 0.032 and 0.029
- Results of absorbance analysis (rate of hydrolysis of the substrate) ([1]; urine sample N6, subject with kidney cancer): 0.0033 and 0.0027 and 0.003
- Results of absorbance analysis (rate of hydrolysis of the substrate) ([1]; urine sample N7, subject with kidney cancer): 0.02 and 0.021 and 0.018
- Results of absorbance analysis (rate of hydrolysis of the substrate) ([1]; urine sample N9, subject with kidney cancer): 0.031 and 0.03 and 0.035
- Results of absorbance analysis (rate of hydrolysis of the substrate) ([1]; urine sample N10, subject with kidney cancer): 0.0026 and 0.0037 and 0.0031
- Results of absorbance analysis (rate of hydrolysis of the substrate) ([1]; urine sample N11, subject with kidney cancer): 0.012 and 0.01 and 0.015
- Results of absorbance analysis (rate of hydrolysis of the substrate) ([1]; urine sample N12, subject with kidney cancer): 0.0098 and 0.0111 and 0.012
- Results of absorbance analysis (rate of hydrolysis of the substrate) ([1]; urine sample N13, subject with kidney cancer): 0.004 and 0.0051 and 0.0045
- Results of absorbance analysis (rate of hydrolysis of the substrate) ([1]; urine sample N14, subject with kidney cancer): 0.0036 and 0.0033 and 0.0032
- Results of absorbance analysis (rate of hydrolysis of the substrate) ([1]; urine sample N15, subject with kidney cancer): 0.0043 and 0.0037 and 0.004
- Results of absorbance analysis (rate of hydrolysis of the substrate) ([1]; urine sample N16, subject with kidney cancer): 0.0039 and 0.0037 and 0.0035
- Results of absorbance analysis (rate of hydrolysis of the substrate) ([1]; urine sample N17, subject with kidney cancer): 0.013 and 0.0135 and 0.0136
- Results of absorbance analysis (rate of hydrolysis of the substrate) ([1]; urine sample N18, subject with kidney cancer): 0.004 and 0.0032 and 0.0038
- Results of absorbance analysis (rate of hydrolysis of the substrate) ([1]; urine sample N19, subject with kidney cancer): 0.0038 and 0.004 and 0.0037
- Results of absorbance analysis (rate of hydrolysis of the substrate) ([1]; urine sample N20, subject with kidney cancer): 0.031 and 0.026
- Dependence of the hydrolysis level of the substrate on pH [2]: maximum activity at alkaline pH
- Cleavage products by RP HPLC analysis [3]: cleaves into the peptide fragment ABZ-Leu-Pro-Gly-Thr-OH and the chromophore group of the compound (ANB-NH2)
- Cleavage of the substrate in samples from patients with other cancers [4]: is not subject to cleavage
- Increase in absorbance / hydrolysis in urine samples from healthy persons ([5]; samples 21 to 40, without a cancer diagnosis): does not lead to an increase in absorbance
- Results of absorbance analysis (rate of hydrolysis of the substrate) ([5]; urine sample 35, healthy subject, 405 nm, 37° C., 60 minutes, pH 8.0, triplicate): 0.000000
